Test results published in the kinase profiling compilation of Christmann-Franck et al. (2016).

Key:
Assay in all cases: KINOMEscan competition binding
MAP3K12 (human) = MAP3K12 (human) (UniProt Q12852); details: compound 10.0 µM
CSNK1G2 (human) = CSNK1G2 (human) (UniProt P78368); details: compound 10.0 µM
RPS6KA1 KD1 (human) = RPS6KA1 KD1 (human) (UniProt Q15418); details: compound 10.0 µM
ULK3 (mouse) = details: compound 10.0 µM; accession and sequence are those of the human protein
MAP3K5 (human) = MAP3K5 (human) (UniProt Q99683); details: compound 10.0 µM
MYLK3 (human) = MYLK3 (human) (UniProt Q32MK0); details: compound 10.0 µM
CDK19 (human) = CDK19 (human) (UniProt Q9BWU1); details: compound 10.0 µM
CDK19 (human), sequence (Q9BWU1 whole entry, looked up): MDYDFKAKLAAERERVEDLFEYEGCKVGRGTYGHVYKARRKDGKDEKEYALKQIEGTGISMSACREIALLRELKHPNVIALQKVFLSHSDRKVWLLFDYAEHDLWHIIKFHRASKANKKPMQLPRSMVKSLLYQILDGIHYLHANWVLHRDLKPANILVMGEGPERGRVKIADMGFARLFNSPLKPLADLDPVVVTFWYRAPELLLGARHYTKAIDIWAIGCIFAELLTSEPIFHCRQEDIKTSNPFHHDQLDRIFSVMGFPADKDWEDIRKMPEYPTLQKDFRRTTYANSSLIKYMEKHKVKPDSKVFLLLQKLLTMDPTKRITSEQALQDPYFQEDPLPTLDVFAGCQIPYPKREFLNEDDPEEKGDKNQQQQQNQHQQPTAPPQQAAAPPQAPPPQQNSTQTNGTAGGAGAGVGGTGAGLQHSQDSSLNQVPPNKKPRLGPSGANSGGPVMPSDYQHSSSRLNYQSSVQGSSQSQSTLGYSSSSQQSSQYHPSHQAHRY

MAP3K12 (human), sequence (Q12852 whole entry, looked up): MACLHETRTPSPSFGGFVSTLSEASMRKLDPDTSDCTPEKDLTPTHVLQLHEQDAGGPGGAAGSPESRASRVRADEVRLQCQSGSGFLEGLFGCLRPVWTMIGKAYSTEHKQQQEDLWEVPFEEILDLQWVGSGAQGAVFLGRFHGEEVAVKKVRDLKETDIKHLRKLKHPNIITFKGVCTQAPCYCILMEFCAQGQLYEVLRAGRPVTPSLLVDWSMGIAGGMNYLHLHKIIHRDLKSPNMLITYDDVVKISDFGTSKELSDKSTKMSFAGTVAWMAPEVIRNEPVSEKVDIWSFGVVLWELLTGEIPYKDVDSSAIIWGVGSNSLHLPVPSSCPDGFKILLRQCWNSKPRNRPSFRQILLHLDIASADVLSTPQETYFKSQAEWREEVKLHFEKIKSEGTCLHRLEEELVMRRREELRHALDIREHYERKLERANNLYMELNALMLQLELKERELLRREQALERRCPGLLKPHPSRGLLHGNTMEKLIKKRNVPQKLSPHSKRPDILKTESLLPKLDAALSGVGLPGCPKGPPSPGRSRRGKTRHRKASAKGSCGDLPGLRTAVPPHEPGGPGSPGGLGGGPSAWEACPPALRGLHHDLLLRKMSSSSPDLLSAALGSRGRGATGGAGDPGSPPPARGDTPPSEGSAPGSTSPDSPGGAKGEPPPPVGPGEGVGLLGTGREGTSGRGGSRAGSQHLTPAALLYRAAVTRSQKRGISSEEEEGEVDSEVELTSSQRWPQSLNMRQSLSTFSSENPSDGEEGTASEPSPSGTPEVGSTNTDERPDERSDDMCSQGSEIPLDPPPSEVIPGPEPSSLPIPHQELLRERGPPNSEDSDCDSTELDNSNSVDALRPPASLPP
RPS6KA1 KD1 (human), sequence (Q15418 whole entry, looked up): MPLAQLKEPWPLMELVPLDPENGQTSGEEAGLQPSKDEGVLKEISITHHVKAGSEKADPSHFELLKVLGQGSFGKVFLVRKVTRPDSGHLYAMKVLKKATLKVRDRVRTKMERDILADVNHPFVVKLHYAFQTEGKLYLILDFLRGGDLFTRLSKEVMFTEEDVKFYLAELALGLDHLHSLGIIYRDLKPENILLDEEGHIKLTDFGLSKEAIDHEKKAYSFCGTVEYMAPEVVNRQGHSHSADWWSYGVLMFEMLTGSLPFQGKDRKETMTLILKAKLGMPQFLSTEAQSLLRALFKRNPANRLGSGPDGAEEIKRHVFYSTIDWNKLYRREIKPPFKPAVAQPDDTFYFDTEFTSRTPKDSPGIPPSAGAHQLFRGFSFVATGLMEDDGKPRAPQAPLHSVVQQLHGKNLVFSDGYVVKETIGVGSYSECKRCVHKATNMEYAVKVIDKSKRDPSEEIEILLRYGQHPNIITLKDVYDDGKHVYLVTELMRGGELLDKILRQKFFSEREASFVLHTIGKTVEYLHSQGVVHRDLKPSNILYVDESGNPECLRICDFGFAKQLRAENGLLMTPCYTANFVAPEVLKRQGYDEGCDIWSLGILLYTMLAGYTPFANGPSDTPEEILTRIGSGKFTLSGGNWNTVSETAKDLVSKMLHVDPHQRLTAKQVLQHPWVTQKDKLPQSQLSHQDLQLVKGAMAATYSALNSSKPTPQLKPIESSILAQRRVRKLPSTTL
CSNK1G2 (human), sequence (P78368 whole entry, looked up): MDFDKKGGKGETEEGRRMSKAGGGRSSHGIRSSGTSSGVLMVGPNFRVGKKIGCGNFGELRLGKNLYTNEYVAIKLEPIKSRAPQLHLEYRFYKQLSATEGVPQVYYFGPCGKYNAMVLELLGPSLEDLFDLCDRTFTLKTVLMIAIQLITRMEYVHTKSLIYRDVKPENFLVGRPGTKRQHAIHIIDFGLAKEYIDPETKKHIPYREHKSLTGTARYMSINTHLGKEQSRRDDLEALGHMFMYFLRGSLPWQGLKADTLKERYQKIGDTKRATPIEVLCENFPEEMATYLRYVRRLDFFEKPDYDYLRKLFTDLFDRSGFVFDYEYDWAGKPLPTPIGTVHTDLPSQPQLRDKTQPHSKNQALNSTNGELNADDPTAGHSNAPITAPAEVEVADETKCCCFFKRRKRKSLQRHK
MAP3K5 (human), sequence (Q99683 whole entry, looked up): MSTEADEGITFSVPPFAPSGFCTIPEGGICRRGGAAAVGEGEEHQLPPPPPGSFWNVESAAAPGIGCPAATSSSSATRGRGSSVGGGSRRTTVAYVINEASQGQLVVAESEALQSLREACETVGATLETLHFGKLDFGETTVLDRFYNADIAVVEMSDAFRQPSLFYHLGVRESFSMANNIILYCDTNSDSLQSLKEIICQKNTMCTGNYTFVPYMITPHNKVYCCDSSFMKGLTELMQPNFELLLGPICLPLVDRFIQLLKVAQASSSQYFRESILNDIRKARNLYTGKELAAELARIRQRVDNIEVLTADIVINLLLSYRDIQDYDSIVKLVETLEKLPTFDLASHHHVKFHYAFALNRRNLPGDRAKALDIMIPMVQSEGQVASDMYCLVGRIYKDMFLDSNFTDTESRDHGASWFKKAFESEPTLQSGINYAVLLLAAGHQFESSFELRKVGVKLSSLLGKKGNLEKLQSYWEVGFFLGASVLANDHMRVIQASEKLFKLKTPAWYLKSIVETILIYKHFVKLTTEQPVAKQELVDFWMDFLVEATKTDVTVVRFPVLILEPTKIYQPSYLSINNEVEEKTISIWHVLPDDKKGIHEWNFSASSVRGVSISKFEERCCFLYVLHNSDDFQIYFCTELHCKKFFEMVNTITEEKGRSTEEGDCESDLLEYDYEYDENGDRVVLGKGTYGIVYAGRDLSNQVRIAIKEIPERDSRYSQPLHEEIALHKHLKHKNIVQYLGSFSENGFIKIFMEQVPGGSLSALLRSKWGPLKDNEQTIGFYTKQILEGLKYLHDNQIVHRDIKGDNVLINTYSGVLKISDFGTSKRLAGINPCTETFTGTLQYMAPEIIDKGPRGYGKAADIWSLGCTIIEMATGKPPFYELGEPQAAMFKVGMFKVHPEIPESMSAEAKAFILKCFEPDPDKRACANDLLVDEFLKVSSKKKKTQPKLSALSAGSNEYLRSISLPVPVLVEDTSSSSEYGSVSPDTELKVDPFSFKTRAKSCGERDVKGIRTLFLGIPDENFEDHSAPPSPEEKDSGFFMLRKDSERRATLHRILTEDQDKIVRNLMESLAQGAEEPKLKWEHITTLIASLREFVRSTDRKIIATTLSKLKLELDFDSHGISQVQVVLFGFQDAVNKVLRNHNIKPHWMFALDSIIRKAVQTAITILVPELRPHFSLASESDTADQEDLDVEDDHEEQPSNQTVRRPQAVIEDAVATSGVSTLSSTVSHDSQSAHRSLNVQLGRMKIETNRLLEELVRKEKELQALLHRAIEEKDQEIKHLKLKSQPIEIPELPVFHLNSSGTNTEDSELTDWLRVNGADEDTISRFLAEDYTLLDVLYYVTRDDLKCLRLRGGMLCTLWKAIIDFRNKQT
MYLK3 (human), sequence (Q32MK0 whole entry, looked up): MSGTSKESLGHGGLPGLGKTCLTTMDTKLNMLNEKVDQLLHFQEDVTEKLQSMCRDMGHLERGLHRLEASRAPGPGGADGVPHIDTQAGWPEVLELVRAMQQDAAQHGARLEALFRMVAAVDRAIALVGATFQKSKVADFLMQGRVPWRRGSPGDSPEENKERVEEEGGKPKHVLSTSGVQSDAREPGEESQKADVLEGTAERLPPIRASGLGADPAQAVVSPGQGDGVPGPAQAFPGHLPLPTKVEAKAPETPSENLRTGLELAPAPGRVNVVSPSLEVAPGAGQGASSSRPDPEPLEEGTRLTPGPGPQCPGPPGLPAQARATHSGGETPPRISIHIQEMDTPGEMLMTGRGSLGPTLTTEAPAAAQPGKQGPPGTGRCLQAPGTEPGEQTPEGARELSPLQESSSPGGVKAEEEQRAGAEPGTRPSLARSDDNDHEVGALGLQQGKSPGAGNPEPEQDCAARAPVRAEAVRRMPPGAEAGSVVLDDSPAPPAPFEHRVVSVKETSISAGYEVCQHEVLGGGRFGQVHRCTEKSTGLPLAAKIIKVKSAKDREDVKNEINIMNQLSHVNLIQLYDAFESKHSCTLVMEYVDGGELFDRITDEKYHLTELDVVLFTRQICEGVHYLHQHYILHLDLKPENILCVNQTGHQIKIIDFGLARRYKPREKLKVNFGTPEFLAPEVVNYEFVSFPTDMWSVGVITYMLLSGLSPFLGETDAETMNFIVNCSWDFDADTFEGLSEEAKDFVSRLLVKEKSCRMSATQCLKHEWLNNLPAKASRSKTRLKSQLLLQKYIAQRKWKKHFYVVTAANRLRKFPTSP

SMILES | inhibition (MAP3K12 (human)) [%] | inhibition of binding (RPS6KA1 KD1 (human)) [%] | inhibition of binding (ULK3 (mouse)) [%] | also measured
O[C@H]1CC[C@H](Nc2nccc(-n3nnc4ccccc43)n2)CC1 | < 50 | < 50 |  | inhibition of binding (CSNK1G2 (human)): < 50%
O[C@H]1CC[C@H](Nc2nccc(-n3ccc4ccccc43)n2)CC1 | < 50 | < 50 |  | 
O=C([C@H]1CC[C@H](Nc2nccc(-n3nnc4ccccc43)n2)CC1)N1CCOCC1 |  |  | < 50 | 
O[C@H]1CC[C@H](Nc2nccc(-c3n[nH]c4ccccc34)n2)CC1 |  |  |  | inhibition of binding (MAP3K5 (human)): < 50%
O[C@H]1CC[C@H](Nc2nccc(-n3ncc4ccccc43)n2)CC1 | < 50 | < 50 |  | inhibition of binding (MYLK3 (human)): < 50%; inhibition (CDK19 (human)): < 50%
N[C@H]1CC[C@H](Nc2nccc(-n3nnc4ccccc43)n2)CC1 |  |  | < 50 | 
